Measured values published in patent publication US8076352B2, “Administration of carboline derivatives useful in the treatment of cancer and other diseases” (PTC Therapeutics, Inc., priority 2004, dated 2011).

What follows are compounds tested on hypoxia-inducible endogenous VEGF expression in HeLa cells (assay: Hypoxia-inducible endogenous VEGF expression, VEGF ELISA of conditioned media (dose-response EC50)). Details: HeLa cells, hypoxic conditions (1% O2).
Format: cell-based
Outline: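 HeLa cells were cultured 24-48 h under hypoxia (1% O2, 5% CO2, balance N2) with or without compound. Conditioned-media VEGF protein was measured by ELISA against a standard curve. EC50 and CC50 come from percentage-inhibition curves over, e.g., seven concentrations, with maximal inhibition set at 100%.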

In the case of `COC(=O)c1ccc(C2c3[nH]c4ccc(Cl)cc4c3CCN2C(=O)Oc2ccc(F)cc2)cc1` (stereo not drawn) [Compound 579], the EC50 is reported as < 8 nM.

Same assay, conditions: Homo sapiens, HeLa cells, hypoxic conditions (1% O2)

First: O=C(Oc1ccc(Cl)cc1)N1CCc2c([nH]c3ccc(Cl)cc23)C1c1ccc(O)cc1 (stereo not drawn) [Compound 577]
Second: COC(=O)c1ccc(C2c3[nH]c4ccc(Cl)cc4c3CCN2C(=O)Oc2ccc(Cl)cc2)cc1 (stereo not drawn) [Compound 580]
The EC50 of the first is higher: 40 to 200 nM for the first, < 8 nM for the second. The second is the more potent here.

First: O=C(Oc1ccc(Cl)cc1)Oc1ccc(C2c3[nH]c4ccc(Cl)cc4c3CCN2C(=O)Oc2ccc(Cl)cc2)cc1 (stereo not drawn) [Compound 578]
Second: O=C(Oc1ccc(Cl)cc1)N1CCc2c([nH]c3ccc(Cl)cc23)C1c1ccc(OCCCI)cc1 (stereo not drawn) [Compound 617]
The EC50 of the first is higher: 40 to 200 nM for the first, 8 to 40 nM for the second.

Going from `O=C(O)c1ccc(C2c3[nH]c4ccc(Cl)cc4c3CCN2C(=O)Oc2ccc(F)cc2)cc1` (stereo not drawn) [Compound 581] to `COC(=O)c1ccc(C2c3[nH]c4ccc(Br)cc4c3CCN2C(=O)Oc2ccc(F)cc2)cc1` (stereo not drawn) [Compound 592], the EC50 falls from > 1000 nM to < 8 nM. The second is the more potent here.

`COc1ccc(C2c3[nH]c4ccc(Cl)cc4c3CCN2C(=O)Oc2ccccc2Cl)cc1` (stereo not drawn) [Compound 587] and `O=C(Oc1ccccc1Cl)N1CCc2c([nH]c3ccc(Cl)cc23)C1c1ccc(F)cc1` (stereo not drawn) [Compound 588] fall in the same range of EC50: 40 to 200 nM for the first, 40 to 200 nM for the second.

`O=C(Oc1ccccc1Cl)N1CCc2c([nH]c3ccc(Cl)cc23)C1c1ccc(Cl)cc1` (stereo not drawn) [Compound 589] and `O=C(Oc1ccccc1Cl)N1CCc2c([nH]c3ccc(Cl)cc23)C1c1ccc(C(F)(F)F)cc1` (stereo not drawn) [Compound 594] fall in the same range of EC50: 40 to 200 nM for the first, 40 to 200 nM for the second.

`COC(=O)c1ccc(C2c3[nH]c4ccc(Cl)cc4c3CCN2C(=O)Oc2ccccc2Cl)cc1` (stereo not drawn) [Compound 590] and `COC(=O)c1ccc(C2c3[nH]c4ccc(Br)cc4c3CCN2C(=O)Oc2ccccc2Cl)cc1` (stereo not drawn) [Compound 593] fall in the same range of EC50: 8 to 40 nM for the first, 8 to 40 nM for the second.

First: COC(=O)c1ccc(C2c3[nH]c4ccc(Br)cc4c3CCN2C(=O)Oc2ccc(Cl)cc2)cc1 (stereo not drawn) [Compound 591]
Second: COc1ccc(C2c3[nH]c4ccc(OC)cc4c3CCN2C(=O)Oc2ccc(Cl)cc2)cc1 (stereo not drawn) [Compound 614]
The EC50 of the first is lower: < 8 nM for the first, 200 to 1000 nM for the second.

First: COc1ccc(C2c3[nH]c4ccc(OCc5ccccc5)cc4c3CCN2C(=O)Oc2ccc(Cl)cc2)cc1 (stereo not drawn) [Compound 616]
Second: COc1ccc(OC(=O)N2CCc3c([nH]c4ccc(Cl)cc34)C2c2ccc(OCC(O)CO)cc2)cc1 (stereo not drawn) [Compound 635]
The EC50 of the first is higher: 200 to 1000 nM for the first, 8 to 40 nM for the second. The second is the more potent here.

First: O=C(Oc1ccccc1)N1CCc2c([nH]c3ccc(Cl)cc23)C1c1ccc(OCC(O)CO)cc1 (stereo not drawn) [Compound 626]
Second: O=C(Oc1ccccc1Cl)N1CCc2c([nH]c3ccc(Cl)cc23)C1c1ccc(OCC(O)CO)cc1 (stereo not drawn) [Compound 628]
The EC50 of the first is lower: 8 to 40 nM for the first, 40 to 200 nM for the second. The first is the more potent here.

`O=C(Oc1ccc(F)cc1)N1CCc2c([nH]c3ccc(Cl)cc23)C1c1ccc(OCC(O)CO)cc1` (stereo not drawn) [Compound 627] and `O=C(Oc1ccc(Cl)cc1)N1CCc2c([nH]c3ccc(Cl)cc23)C1c1ccc(OCC(O)CO)cc1` (stereo not drawn) [Compound 629] cannot be ordered by EC50: < 8 nM for the first, < 8 nM for the second.

`O=C(Oc1ccc(Br)cc1)N1CCc2c([nH]c3ccc(Cl)cc23)C1c1ccc(OCC(O)CO)cc1` (stereo not drawn) [Compound 630] and `Cc1ccc(OC(=O)N2CCc3c([nH]c4ccc(Cl)cc34)C2c2ccc(OCC(O)CO)cc2)cc1` (stereo not drawn) [Compound 631] cannot be ordered by EC50: < 8 nM for the first, < 8 nM for the second.

`O=C(Oc1ccc([N+](=O)[O-])cc1)N1CCc2c([nH]c3ccc(Cl)cc23)C1c1ccc(OCC(O)CO)cc1` (stereo not drawn) [Compound 632] and `COCCOCCOc1ccc(C2c3[nH]c4ccc(Cl)cc4c3CCN2C(=O)Oc2ccc([N+](=O)[O-])cc2)cc1` (stereo not drawn) [Compound 681] fall in the same range of EC50: 8 to 40 nM for the first, 8 to 40 nM for the second.

`CC(=O)N1CCN(CC(O)COc2ccc(C3c4[nH]c5ccc(Cl)cc5c4CCN3C(=O)Oc3ccc(F)cc3)cc2)CC1` (stereo not drawn) [Compound 637] and `O=C(Oc1ccc(F)cc1)N1CCc2c([nH]c3ccc(Cl)cc23)C1c1ccc(OCC(O)CN2CCOCC2)cc1` (stereo not drawn) [Compound 638] cannot be ordered by EC50: < 8 nM for the first, < 8 nM for the second.

`O=C(Oc1ccc(Cl)cc1)N1CCc2c([nH]c3ccc(Cl)cc23)C1c1ccc(OCCCCCl)cc1` (stereo not drawn) [Compound 660] and `O=C(Oc1ccc(F)cc1)N1CCc2c([nH]c3ccc(Cl)cc23)C1c1ccc(OCCCCCl)cc1` (stereo not drawn) [Compound 719] cannot be ordered by EC50: < 8 nM for the first, < 8 nM for the second.

First: COCCOCCOc1ccc(C2c3[nH]c4ccc(Cl)cc4c3CCN2C(=O)Oc2ccccc2)cc1 (stereo not drawn) [Compound 670]
Second: COCCOCCOc1ccc(C2c3[nH]c4ccc(Cl)cc4c3CCN2C(=O)Oc2ccccc2Cl)cc1 (stereo not drawn) [Compound 674]
The EC50 of the first is lower: < 8 nM for the first, 8 to 40 nM for the second.

`COCCOCCOc1ccc(C2c3[nH]c4ccc(Cl)cc4c3CCN2C(=O)Oc2ccc(Cl)cc2)cc1` (stereo not drawn) [Compound 675] and `COCCOCCOc1ccc(C2c3[nH]c4ccc(Cl)cc4c3CCN2C(=O)Oc2ccc(C)cc2)cc1` (stereo not drawn) [Compound 677] fall in the same range of EC50: 8 to 40 nM for the first, 8 to 40 nM for the second.

First: COCCOCCOc1ccc(C2c3[nH]c4ccc(Cl)cc4c3CCN2C(=O)Oc2ccc(OC)cc2)cc1 (stereo not drawn) [Compound 678]
Second: COCCOCCOc1ccc(C2c3[nH]c4ccc(Cl)cc4c3CCN2C(=O)Oc2ccc(Br)cc2)cc1 (stereo not drawn) [Compound 680]
The EC50 of the first is higher: 40 to 200 nM for the first, < 8 nM for the second. The second is the more potent here.

`O=C(Oc1ccc(Cl)cc1)N1CCc2c([nH]c3ccc(Cl)cc23)C1c1ccc(OCCCCN2CCCC2)cc1` (stereo not drawn) [Compound 698] and `O=C(Oc1ccc(Cl)cc1)N1CCc2c([nH]c3ccc(Cl)cc23)C1c1ccc(OCCCCN2CCCCC2)cc1` (stereo not drawn) [Compound 703] fall in the same range of EC50: 8 to 40 nM for the first, 8 to 40 nM for the second.

First: O=C(Oc1ccc(Cl)cc1)N1CCc2c([nH]c3ccc(Cl)cc23)C1c1ccc(OCCCCNCCO)cc1 (stereo not drawn) [Compound 699]
Second: O=C(Oc1ccc(Cl)cc1)N1CCc2c([nH]c3ccc(Cl)cc23)C1c1ccc(OCCCCCCNCCO)cc1 (stereo not drawn) [Compound 782]
The EC50 of the first is higher: 8 to 40 nM for the first, < 8 nM for the second.

`CC(C)NCCCCOc1ccc(C2c3[nH]c4ccc(Cl)cc4c3CCN2C(=O)Oc2ccc(Cl)cc2)cc1` (stereo not drawn) [Compound 700] and `CC(C)NCCCCCCOc1ccc(C2c3[nH]c4ccc(Cl)cc4c3CCN2C(=O)Oc2ccc(F)cc2)cc1` (stereo not drawn) [Compound 774] fall in the same range of EC50: 8 to 40 nM for the first, 8 to 40 nM for the second.

`COCCCNCCCCOc1ccc(C2c3[nH]c4ccc(Cl)cc4c3CCN2C(=O)Oc2ccc(Cl)cc2)cc1` (stereo not drawn) [Compound 701] and `COCCCNCCCCOc1ccc(C2c3[nH]c4ccc(Cl)cc4c3CCN2C(=O)Oc2ccc(F)cc2)cc1` (stereo not drawn) [Compound 737] fall in the same range of EC50: 8 to 40 nM for the first, 8 to 40 nM for the second.

First: O=C(Oc1ccc(Cl)cc1)N1CCc2c([nH]c3ccc(Cl)cc23)C1c1ccc(OCCCCN2CCOCC2)cc1 (stereo not drawn) [Compound 702]
Second: O=C(Oc1ccc(F)cc1)N1CCc2c([nH]c3ccc(Cl)cc23)C1c1ccc(OCCCCN2CCOCC2)cc1 (stereo not drawn) [Compound 738]
The EC50 of the first is higher: 8 to 40 nM for the first, < 8 nM for the second.

`CN1CCN(CCCCOc2ccc(C3c4[nH]c5ccc(Cl)cc5c4CCN3C(=O)Oc3ccc(Cl)cc3)cc2)CC1` (stereo not drawn) [Compound 704] and `CN1CCN(CCCCOc2ccc(C3c4[nH]c5ccc(Cl)cc5c4CCN3C(=O)Oc3ccc(F)cc3)cc2)CC1` (stereo not drawn) [Compound 740] fall in the same range of EC50: 40 to 200 nM for the first, 40 to 200 nM for the second.

Compared with `O=C(Oc1ccc(Cl)cc1)N1CCc2c([nH]c3ccc(Cl)cc23)C1c1ccc(OCCCCn2ccnc2)cc1` (stereo not drawn) [Compound 705], `O=C(Oc1ccc(F)cc1)N1CCc2c([nH]c3ccc(Cl)cc23)C1c1ccc(OCCCCn2ccnc2)cc1` (stereo not drawn) [Compound 742] is lower in EC50: 8 to 40 nM for the first, < 8 nM for the second.

`O=C(Oc1ccc(Cl)cc1)N1CCc2c([nH]c3ccc(Cl)cc23)C1c1ccc(OCCCCn2cncn2)cc1` (stereo not drawn) [Compound 706] and `O=C(Oc1ccc(F)cc1)N1CCc2c([nH]c3ccc(Cl)cc23)C1c1ccc(OCCCCn2cncn2)cc1` (stereo not drawn) [Compound 743] cannot be ordered by EC50: < 8 nM for the first, < 8 nM for the second.

First: O=C(Oc1ccccc1)N1CCc2c([nH]c3ccc(Cl)cc23)C1c1ccc(OCCCCl)cc1 (stereo not drawn) [Compound 710]
Second: O=C(Oc1ccccc1Cl)N1CCc2c([nH]c3ccc(Cl)cc23)C1c1ccc(OCCCCl)cc1 (stereo not drawn) [Compound 713]
The EC50 of the first is lower: < 8 nM for the first, 8 to 40 nM for the second. The first is the more potent here.

`O=C(Oc1ccc(F)cc1)N1CCc2c([nH]c3ccc(Cl)cc23)C1c1ccc(OCCCCl)cc1` (stereo not drawn) [Compound 712] and `O=C(Oc1ccc(F)cc1)N1CCc2c([nH]c3ccc(Cl)cc23)C1c1ccc(OCCCCCCCl)cc1` (stereo not drawn) [Compound 723] cannot be ordered by EC50: < 8 nM for the first, < 8 nM for the second.

`O=C(Oc1ccc(F)cc1)N1CCc2c([nH]c3ccc(Cl)cc23)C1c1ccc(OCCCCNCCO)cc1` (stereo not drawn) [Compound 735] and `O=C(Oc1ccc(F)cc1)N1CCc2c([nH]c3ccc(Cl)cc23)C1c1ccc(OCCCCCCNCCO)cc1` (stereo not drawn) [Compound 772] cannot be ordered by EC50: < 8 nM for the first, < 8 nM for the second.

`O=C(Oc1ccc(F)cc1)N1CCc2c([nH]c3ccc(Cl)cc23)C1c1ccc(OCCCCN2CCCC2)cc1` (stereo not drawn) [Compound 736] and `O=C(Oc1ccc(F)cc1)N1CCc2c([nH]c3ccc(Cl)cc23)C1c1ccc(OCCCCN2CCCCC2)cc1` (stereo not drawn) [Compound 739] cannot be ordered by EC50: < 8 nM for the first, < 8 nM for the second.

`O=C(Oc1ccc(F)cc1)N1CCc2c([nH]c3ccc(Cl)cc23)C1c1ccc(OCCCCNCCCn2ccnc2)cc1` (stereo not drawn) [Compound 741] and `O=C(Oc1ccc(F)cc1)N1CCc2c([nH]c3ccc(Cl)cc23)C1c1ccc(OCCCCCCNCCCn2ccnc2)cc1` (stereo not drawn) [Compound 779] fall in the same range of EC50: 40 to 200 nM for the first, 40 to 200 nM for the second.

`O=C(Oc1ccc(F)cc1)N1CCc2c([nH]c3ccc(Cl)cc23)C1c1ccc(OCCCCCCN2CCCC2)cc1` (stereo not drawn) [Compound 773] and `O=C(Oc1ccc(F)cc1)N1CCc2c([nH]c3ccc(Cl)cc23)C1c1ccc(OCCCCCCN2CCCCC2)cc1` (stereo not drawn) [Compound 777] cannot be ordered by EC50: < 8 nM for the first, < 8 nM for the second.

`COCCCNCCCCCCOc1ccc(C2c3[nH]c4ccc(Cl)cc4c3CCN2C(=O)Oc2ccc(F)cc2)cc1` (stereo not drawn) [Compound 775] and `O=C(Oc1ccc(F)cc1)N1CCc2c([nH]c3ccc(Cl)cc23)C1c1ccc(OCCCCCCn2ccnc2)cc1` (stereo not drawn) [Compound 780] cannot be ordered by EC50: < 8 nM for the first, < 8 nM for the second.

`O=C(Oc1ccc(F)cc1)N1CCc2c([nH]c3ccc(Cl)cc23)C1c1ccc(OCCCCCCN2CCOCC2)cc1` (stereo not drawn) [Compound 776] and `CN1CCN(CCCCCCOc2ccc(C3c4[nH]c5ccc(Cl)cc5c4CCN3C(=O)Oc3ccc(F)cc3)cc2)CC1` (stereo not drawn) [Compound 778] cannot be ordered by EC50: < 8 nM for the first, < 8 nM for the second.

`O=C(Oc1ccc(F)cc1)N1CCc2c([nH]c3ccc(Cl)cc23)C1c1ccc(OCCCCCCn2cncn2)cc1` (stereo not drawn) [Compound 781] and `O=C(Oc1ccc(Cl)cc1)N1CCc2c([nH]c3ccc(Cl)cc23)C1c1ccc(OCCCCCCN2CCCC2)cc1` (stereo not drawn) [Compound 783] cannot be ordered by EC50: < 8 nM for the first, < 8 nM for the second.
